Measured values published in the supplement of paper PMC11451515.

System: P12-Ichikawa
Experiment: cell viability relative to DMSO control; higher = less cytotoxic
Conditions: 48 h
Method in brief: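 Library compounds in DMSO were pin-dosed in an 11-point threefold series (47 μM to 0.79 nM) onto leukemia cells in 1536-well plates (5 μl). Plates held 500 cells/well of NOMO1 or SEM or 1000 cells/well of P12-Ichikawa, each adapted for at least four passages in each medium. Luminescence was read with CellTiter-Glo One after 48 h at 37°C. Viability means the per-plate percentage relative to DMSO wells, using cell-free wells as background.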

[1] = HPLM + 10% dialyzed FBS, 0.000781 µM
[2] = HPLM + 10% dialyzed FBS, 0.00234 µM
[3] = HPLM + 10% dialyzed FBS, 0.00702 µM
[4] = HPLM + 10% dialyzed FBS, 0.0211 µM
[5] = HPLM + 10% dialyzed FBS, 0.0632 µM
[6] = HPLM + 10% dialyzed FBS, 0.19 µM
[7] = HPLM + 10% dialyzed FBS, 0.569 µM
[8] = HPLM + 10% dialyzed FBS, 1.71 µM
[9] = HPLM + 10% dialyzed FBS, 5.12 µM
[10] = HPLM + 10% dialyzed FBS, 15.4 µM
[11] = HPLM + 10% dialyzed FBS, 46.1 µM
[12] = RPMI 5 mM glucose + 10% FBS, 0.000781 µM
[13] = RPMI 5 mM glucose + 10% FBS, 0.00234 µM
[14] = RPMI 5 mM glucose + 10% FBS, 0.00702 µM
[15] = RPMI 5 mM glucose + 10% FBS, 0.0211 µM
[16] = RPMI 5 mM glucose + 10% FBS, 0.0632 µM
[17] = RPMI 5 mM glucose + 10% FBS, 0.19 µM
[18] = RPMI 5 mM glucose + 10% FBS, 0.569 µM
[19] = RPMI 5 mM glucose + 10% FBS, 1.71 µM
[20] = RPMI 5 mM glucose + 10% FBS, 5.12 µM
[21] = RPMI 5 mM glucose + 10% FBS, 15.4 µM
[22] = RPMI 5 mM glucose + 10% FBS, 46.1 µM
[23] = RPMI 5 mM glucose + 10% dialyzed FBS, 0.000781 µM
[24] = RPMI 5 mM glucose + 10% dialyzed FBS, 0.00234 µM
[25] = RPMI 5 mM glucose + 10% dialyzed FBS, 0.00702 µM
[26] = RPMI 5 mM glucose + 10% dialyzed FBS, 0.0211 µM
[27] = RPMI 5 mM glucose + 10% dialyzed FBS, 0.0632 µM
[28] = RPMI 5 mM glucose + 10% dialyzed FBS, 0.19 µM
[29] = RPMI 5 mM glucose + 10% dialyzed FBS, 0.569 µM
[30] = RPMI 5 mM glucose + 10% dialyzed FBS, 1.71 µM
[31] = RPMI 5 mM glucose + 10% dialyzed FBS, 5.12 µM
[32] = RPMI 5 mM glucose + 10% dialyzed FBS, 15.4 µM
[33] = RPMI 5 mM glucose + 10% dialyzed FBS, 46.1 µM

Compound | cell viability [1] | cell viability [2] | cell viability [3] | cell viability [4] | cell viability [5] | cell viability [6] | cell viability [7] | cell viability [8] | cell viability [9] | cell viability [10] | cell viability [11] | cell viability [12] | cell viability [13] | cell viability [14] | cell viability [15] | cell viability [16] | cell viability [17] | cell viability [18] | cell viability [19] | cell viability [20] | cell viability [21] | cell viability [22] | cell viability [23] | cell viability [24] | cell viability [25] | cell viability [26] | cell viability [27] | cell viability [28] | cell viability [29] | cell viability [30] | cell viability [31] | cell viability [32] | cell viability [33]
CO[C@H]1C[C@H]2OC[C@@]2(OC(C)=O)[C@H]3[C@H](OC(=O)C4=CC=CC=C4)[C@]5(O)C[C@H](OC(=O)[C@H](O)[C@@H](NC(=O)OC(C)(C)C)C6=CC=CC=C6)/C(=C(/[C@@H](OC)C(=O)[C@]13C)C5(C)C)C | 78.2% | 87.6% | 29.3% | 28.4% | 19% | 18.9% | 18.8% | 20.1% | 12.1% | 13.4% | 7.21% | 69.9% | 81.6% | 70.8% | 30.4% | 11.6% | 15.3% | 15.2% | 15.9% | 10.5% | 10.6% | 10.8% | 73.7% | 71.1% | 67.9% | 34.5% | 28% | 27.7% | 24.2% | 26.1% | 20.2% | 21% | 11.9%
CC/C(=C(\c1ccccc1)c1ccc(OCCN(C)C)cc1)c1ccccc1 | 102% | 106% | 102% | 104% | 95.8% | 109% | 104% | 109% | 113% | 104% | 86.3% | 99.9% | 102% | 96.2% | 118% | 89.7% | 102% | 104% | 99.4% | 108% | 100% | 83.9% | 113% | 108% | 113% | 114% | 95.3% | 112% | 117% | 117% | 104% | 102% | 76.9%
CN1CCN(c2cc(C(=O)Nc3ccc4c(c3)-c3c(c(C(N)=O)nn3-c3ccc(F)cc3)CC4)c(Cl)cn2)CC1 | 115% | 109% | 102% | 114% | 114% | 107% | 105% | 98.1% | 104% | 95% | 3.56% | 113% | 111% | 116% | 113% | 109% | 120% | 107% | 102% | 103% | 104% | 12% | 113% | 107% | 122% | 111% | 124% | 109% | 105% | 100% | 104% | 102% | 5.67%
CCc1nc(C(N)=O)c(Nc2ccc(N3CCC(N4CCN(C)CC4)CC3)c(OC)c2)nc1NC1CCOCC1 | 106% | 103% | 111% | 111% | 114% | 97.4% | 97.7% | 102% | 91.7% | 75.1% | 52.6% | 103% | 101% | 109% | 117% | 112% | 100% | 98.7% | 102% | 88.9% | 71.1% | 52.3% | 110% | 109% | 123% | 111% | 131% | 104% | 108% | 110% | 94.8% | 75.9% | 42.1%
CC(=O)[C@H]1CC[C@H]2[C@@H]3C/C=C4/C[C@@H](O)CC[C@]4(C)[C@H]3CC[C@]12C | 120% | 124% | 114% | 116% | 112% | 120% | 124% | 115% | 114% | 114% | 110% | – | – | – | – | – | – | – | – | – | – | – | 112% | 120% | 129% | 112% | 124% | 115% | 126% | 125% | 112% | 104% | 103%
c1cc(N[C@@H]2CCNC2)nc(-c2cnc3ccc(-c4cn[nH]c4)cn23)c1 | 116% | 121% | 122% | 123% | 131% | 130% | 135% | 136% | 132% | 120% | 104% | – | – | – | – | – | – | – | – | – | – | – | – | – | – | – | – | – | – | – | – | – | –
COC1=CC=CC(=C1/C2=N/CC3=C(N=C(NC4=CC(=C(C=C4)C(O)=O)OC)N=C3)C5=CC=C(Cl)C=C25)F | 82.2% | 87.8% | 82.3% | 87.8% | 56% | 16.6% | 13.5% | 12% | 13.9% | 18.2% | 20.5% | 93.8% | 81.6% | 77.9% | 83% | 49% | 22.4% | 16% | 16% | 15.8% | 22.1% | 28.5% | 81% | 80.3% | 77.8% | 77.7% | 49.6% | 30% | 24.2% | 23% | 27.2% | 29.7% | 35.4%
CCCCCCCN(CC)CCCC(O)c1ccc(NS(C)(=O)=O)cc1.CCCCCCCN(CC)CCCC(O)c1ccc(NS(C)(=O)=O)cc1.O=C(O)/C=C/C(=O)O (stereo not drawn) | 111% | 108% | 116% | 111% | 101% | 125% | 113% | 112% | 112% | 88.9% | 77.7% | 107% | 118% | 113% | 108% | 85.4% | 115% | 116% | 111% | 102% | 89.6% | 69.1% | 100% | 101% | 106% | 113% | 94.8% | 108% | 111% | 113% | 98.9% | 93% | 69.2%
CC[P](CC)(CC)=[Au][S][C@@H]1O[C@H](COC(C)=O)[C@@H](OC(C)=O)[C@H](OC(C)=O)[C@H]1OC(C)=O | 122% | 108% | 116% | 109% | 115% | 105% | 110% | 77.2% | 23% | 2.24% | 1.8% | 104% | 119% | 112% | 123% | 115% | 103% | 109% | 9.37% | 2.79% | 2.08% | 1.61% | 117% | 111% | 117% | 117% | 114% | 105% | 96.3% | 3.62% | 2.8% | – | 1.1%
N#C[C@@H]1C[C@@H]2C[C@@H]2N1C(=O)[C@@H](N)C12CC3CC(CC(O)(C3)C1)C2 | 121% | 123% | 115% | 122% | 122% | 114% | 122% | 110% | 109% | 110% | 108% | 132% | 123% | 120% | 120% | 116% | 123% | 128% | 107% | 111% | 110% | 97.6% | 122% | 128% | 121% | 118% | 124% | 114% | 121% | 123% | 112% | 111% | 108%
CNC(=O)c1cc(COc2nnc(Nc3ccc(Cl)cc3)c3ccoc23)ccn1 | 119% | 109% | 110% | 105% | 106% | 113% | 105% | 103% | 106% | 101% | 89.4% | 117% | 116% | 118% | 115% | 116% | 113% | 112% | 110% | 105% | 107% | 102% | 114% | 130% | 108% | 114% | 104% | 115% | 116% | 100% | 111% | 101% | 97.4%
CN1CCC(=C2c3ccccc3CCc3sccc32)CC1 | 110% | 108% | 111% | 106% | 111% | 118% | 112% | 111% | 114% | 111% | 90.8% | 108% | 116% | 109% | 117% | 119% | 124% | 132% | 110% | 120% | 116% | 89.7% | 101% | 107% | 113% | 104% | 109% | 108% | 115% | 114% | 115% | 107% | 82.4%
Cc1ccc(C)c(OCCCC(C)(C)C(=O)O)c1 | 87% | 92.4% | 90.8% | 95% | 101% | 97.9% | 93.2% | 102% | 106% | 98% | 92.1% | 90% | 86.9% | 84.5% | 90.7% | 91.1% | 92.9% | 89% | 91.7% | 84.1% | 92.4% | 97.1% | 81.2% | 82.9% | 84.3% | 92.6% | 84.5% | 87.7% | 85.5% | 86.6% | 88.8% | 88% | 90%
Cc1ccc([S+](=O)([O-])NC(=O)NN2CC3CCCC3C2)cc1 (stereo not drawn) | 107% | 110% | 110% | 114% | 112% | 106% | 100% | 80.8% | 66.4% | 44.5% | 22.7% | 110% | 108% | 103% | 102% | 113% | 108% | 97.7% | 70.5% | 57.3% | 34.7% | 20.1% | 107% | 109% | 116% | 106% | 112% | 102% | 93.4% | 72.4% | 51.4% | 36.3% | 23.9%
NC(=O)c1c(OCc2c(F)cc(Br)cc2F)nsc1NC(=O)NCCCCN1CCCC1 | 107% | 112% | 103% | 104% | 99.9% | 102% | 98.8% | 100% | 89.5% | 45.2% | 43.8% | – | – | – | – | – | – | – | – | – | – | – | 123% | 126% | 116% | 111% | 108% | 111% | 111% | 96.7% | 99.6% | 46.9% | 68.1%
Cc1nc(N)sc1-c1ccnc(Nc2ccc(N3CCOCC3)cc2)n1 | 97.4% | 100% | 108% | 109% | 112% | 108% | 111% | 104% | 19.4% | 25% | 43.8% | 92.4% | 107% | 105% | 107% | 114% | 113% | 109% | 116% | 29.3% | 24.6% | 37.6% | 97.6% | 111% | 112% | 109% | 112% | 114% | 112% | 110% | 35.4% | 42% | 38.5%
